Reference: ChEMBL document CHEMBL5053497, “Azaphilones from an Endophytic Penicillium sp. Prevent Neuronal Cell Death via Inhibition of MAPKs and Reduction of Bax/Bcl-2 Ratio” (2021)
Activity calls are given as the source filed them. No cut-off for these calls is given here.

Legend:
HT-22 [1] = assay: Neuroprotective activity in mouse HT-22 cells assessed as inhibition of glutamate-induced nuclear condensation at 25 uM incubated for 12 hrs in presence of glutamate by Hoechst 33342 staining based fluorescence microscopic analysis; format: functional, cell-based
HT-22 [2] = assay: Neuroprotective activity in mouse HT-22 cells assessed as reduction in glutamate-induced intracellular Ca2+ level at 25 uM incubated for 8 hrs in presence of glutamate by Fluo-4AM staining based microscopic imaging analysis; format: functional, cell-based
HT-22 [3] = assay: Neuroprotective activity against glutamate-induced cytotoxicity in mouse HT-22 cells assessed as cell viability at 25 to 50 uM incubated for 24 hrs in presence of glutamate by EZ-CyTox reagent based analysis (reference value: 50 %); format: functional; conditions: dose 25-50 µM
HT-22 [4] = assay: Neuroprotective activity against glutamate-induced cytotoxicity in mouse HT-22 cells assessed as cell viability at 25 uM incubated for 24 hrs in presence of glutamate by EZ-CyTox reagent based analysis relative to control; format: functional; conditions: read-out: Activity
HT-22 [5] = assay: Neuroprotective activity in mouse HT-22 cells assessed as reduction in glutamate-induced intracellular Ca2+ level at 10 to 20 uM incubated for 8 hrs in presence of glutamate by Fluo-4AM staining based microscopic imaging analysis; format: functional, cell-based; conditions: dose 10-20 µM
HT-22 [6] = assay: Neuroprotective activity in mouse HT-22 cells assessed as reduction in glutamate-induced intracellular Ca2+ level at 50 uM incubated for 8 hrs in presence of glutamate by Fluo-4AM staining based microscopic imaging analysis; format: functional, cell-based
HT-22 [7] = assay: Neuroprotective activity against glutamate-induced cytotoxicity in mouse HT-22 cells assessed as cell viability at 50 to 100 uM incubated for 24 hrs in presence of glutamate by EZ-CyTox reagent based analysis; format: functional; conditions: dose 50-100 µM
HT-22 [8] = assay: Inhibition of glutamate-induced MAPK activation in mouse HT-22 cells assessed as reduction in p38 phosphorylation at 10 to 20 uM incubated for 11 hrs in presence of glutamate by Western blot analysis; format: cell-based; conditions: dose 10-20 µM
HT-22 [9] = assay: Inhibition of glutamate-induced MAPK activation in mouse HT-22 cells assessed as reduction in JNK phosphorylation at 10 to 20 uM incubated for 11 hrs in presence of glutamate by Western blot analysis; format: cell-based; conditions: dose 10-20 µM
HT-22 [10] = assay: Inhibition of glutamate-induced MAPK activation in mouse HT-22 cells assessed as reduction in ERK phosphorylation at 10 to 20 uM incubated for 11 hrs in presence of glutamate by Western blot analysis; format: cell-based; conditions: dose 10-20 µM
HT-22 [11] = assay: Neuroprotective activity in mouse HT-22 cells assessed as inhibition of glutamate-induced nuclear condensation at 10 to 20 uM incubated for 12 hrs in presence of glutamate by Hoechst 33342 staining based fluorescence microscopic analysis; format: functional, cell-based; conditions: dose 10-20 µM
HT-22 [12] = assay: Neuroprotective activity against glutamate-induced cytotoxicity in mouse HT-22 cells assessed as cell viability at 12.5 uM incubated for 24 hrs in presence of glutamate by EZ-CyTox reagent based analysis; format: functional
HT-22 [13] = assay: Neuroprotective activity against glutamate-induced cell death in mouse HT-22 cells assessed as reduction in Bax/Bcl2 ratio at 10 to 20 uM incubated for 11 hrs in presence of glutamate by Western blot analysis; format: functional, cell-based; conditions: dose 10-20 µM

SMILES | inhibition (HT-22 [1]) | Activity (HT-22 [2]) | Activity (HT-22 [3]) | viability at 25 µM (HT-22 [4]) | further results
CC[C@@H](/C=C(C)/C=C/C1=CC2=CC(=O)[C@](C)(O)[C@H](O)[C@H]2CO1)CO | inactive | inactive | 80% | – | –
CC[C@H](C)/C=C(C)/C=C/C1=CC2=C(Cl)C(=O)[C@](C)(OC(C)=O)C(=O)C2=CN1CCO | Active | – | 80% | 100% | Activity (HT-22 [5]): Active
CC[C@H](C)/C=C(C)/C=C/C1=CC2=C(Cl)C(=O)[C@](C)(OC)C(=O)C2=CN1CCO | Active | – | 80% | 100% | Activity (HT-22 [6]): Active
CC[C@H](C)/C=C(C)/C=C/C1=CC2=C(Cl)C(=O)[C@](C)(O)[C@H](O)C2=CO1 | – | – | – | – | Activity (HT-22 [7]): Active
CC[C@H](C)/C=C(C)/C=C/C1=CC2=C(Cl)C(=O)[C@](C)(OC(C)=O)C(=O)C2=CN1 [SCLEROTIORAMINE] | – | – | – | 100% | inhibition (HT-22 [8]): Active; inhibition (HT-22 [9]): Active; inhibition (HT-22 [10]): Active; inhibition (HT-22 [11]): Active; Activity (HT-22 [5]): Active; Activity (HT-22 [12]): Active; Activity (HT-22 [13]): Active
CC(/C=C/C1=CC2=C(Cl)C(=O)[C@](C)(O)[C@H](O)[C@@H]2CO1)=C\[C@@H](C)CCO | inactive | inactive | 80% | – | –
CC[C@H](C)/C=C(C)/C=C/C1=CC2=CC(=O)[C@](C)(O)[C@H](O)[C@H]2CO1 | inactive | inactive | – | – | Activity (HT-22 [7]): Active
